How the values were obtained:
[1] = biological target: T1, D4 human receptors (Homo sapiens, UniProt P21917); assay: D4 radioligand receptor binding assay ([3H] YM-09151-2); settings: compound 10^−7 M, singlicate; membranes from CHO cells; [3H] YM-09151-2 0.15-0.25 nM
T1 construct: expressed in transfected cells; host or cells: CHO cells
T1 sequence (P21917 1-419): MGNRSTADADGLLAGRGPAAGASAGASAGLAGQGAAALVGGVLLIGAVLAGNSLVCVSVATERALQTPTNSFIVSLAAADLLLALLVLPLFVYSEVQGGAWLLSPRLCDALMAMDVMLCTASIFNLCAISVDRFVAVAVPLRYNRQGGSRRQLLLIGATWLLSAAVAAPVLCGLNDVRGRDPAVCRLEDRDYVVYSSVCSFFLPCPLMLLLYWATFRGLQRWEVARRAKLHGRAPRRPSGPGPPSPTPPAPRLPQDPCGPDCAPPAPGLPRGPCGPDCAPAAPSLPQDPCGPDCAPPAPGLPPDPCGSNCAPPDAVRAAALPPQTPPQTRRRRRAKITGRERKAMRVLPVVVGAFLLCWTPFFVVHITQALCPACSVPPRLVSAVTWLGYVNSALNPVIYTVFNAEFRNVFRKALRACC
Method: D4 Radioligand Receptor Binding Assay
Membranes from CHO cells, expressing D4 human receptors were suspended in incubation buffer.
Binding assays were performed in MultiProbe 204 pipetting system (Packard), according to a predetermined mapping, consistent with the software Screen. The compounds were tested in singlicate at one concentration (10^−7 M) in a total volume of 1000 μl (980 μl of diluted membranes, 10 μl DMSO or unlabelled ligand, and 10 μl of [^3H] YM-09151-2 (0.15-0.25 nM). After incubation for 120 minutes at 27° C., the reaction was stopped by rapid filtration through Tomtec Cell Harvester (48 wells) using Filtermat B (presoaked in 0.1% PEI) filters. Filters were washed with ice-cold 50 mM Tris-HCl (pH 7.4) buffer (9×700 μl), dried, covered with MeltiLex B/HS (Wallac) scintillator sheets and heated in oven at 80° C.-90° C. for about 10 minutes, transferred into plastic sample bags (Wallac), sealed and put into 1024 Beta Plate scintillation counter (Wallac). Non-specific binding was determined in the presence of clozapine dissolved in DMSO to a final concentration of 10^−5 M.
(§1) The specific radioligand binding to the receptor was defined by the difference between total binding and non-specific binding, determined in the presence of an excess of unlabelled ligand. Results were expressed as percentage of control specific binding obtained in the presence of the compounds.

[2] = biological target: T2, 5-HT1A human receptors (Homo sapiens, UniProt P08908); assay: 5-HT1A radioligand receptor binding assay ([3H]-8-OH-DPAT); settings: membranes from CHO cells
T2 construct: expressed in transfected cells; host or cells: CHO cells
T2 sequence (P08908 1-422): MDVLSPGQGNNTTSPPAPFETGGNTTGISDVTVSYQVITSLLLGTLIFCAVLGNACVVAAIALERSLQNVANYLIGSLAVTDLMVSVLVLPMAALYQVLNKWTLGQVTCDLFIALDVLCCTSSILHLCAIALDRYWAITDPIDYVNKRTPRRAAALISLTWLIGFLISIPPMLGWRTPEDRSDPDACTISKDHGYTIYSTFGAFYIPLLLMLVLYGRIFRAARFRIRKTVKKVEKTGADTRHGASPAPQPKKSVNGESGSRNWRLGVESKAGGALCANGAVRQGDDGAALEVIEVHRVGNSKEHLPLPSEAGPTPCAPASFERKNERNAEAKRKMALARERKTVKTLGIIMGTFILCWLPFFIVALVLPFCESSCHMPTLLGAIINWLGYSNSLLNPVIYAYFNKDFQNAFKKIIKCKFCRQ
Method: 5-HT1A, Radioligand Receptor Binding Assay
Membranes from CHO cells, expressing 5-HT1A human receptors were suspended in incubation buffer.
Binding assays were performed in MultiProbe 204 pipetting system (Packard), according to a predetermined mapping, consistent with the software Screen. The compounds were tested in singlicate at one concentration (10^−7 M) in a total volume of 1000 μl. 980 μl of diluted membranes, 10 μl DMSO or unlabelled ligand, and 10 μl of [^3H]-8-OH-DPAT (0.6-0.7 nM) were incubated for 60 minutes at 27° C. The reaction was stopped by rapid filtration through Tomtec Cell Harvester (48 wells) using Filtermat B (presoaked in 0.1% PEI) filters. Filters were washed with ice-cold 50 mM Tris-HCl (pH 7.4) buffer (9×700 μl), dried, covered with MeltiLex B/HS scintillator sheets (Wallac) and heated at 80° C. to 90° C. for about 10 minutes, transferred into plastic sample bags (Wallac), sealed and put into 1024 Beta Plate scintillation counter (Wallac). Non-specific binding was determined in the presence of 5-HT (10^−5 M).
as §1, with “compounds. The affinity values (IC50) for the compounds were obtained by a nonlinear least squares regression analysis on the basis of a one binding site model.” for “compounds.”

[3] = biological target: T3, 5-HT1A receptor (CHO/5-HT1A cells) (Homo sapiens, UniProt P08908); assay: 5-HT1A functional assay (cAMP); type: cell-based; settings: 10 μM compound, % inhibition of the cAMP accumulation induced by 10 μM FSK, read-out: 5-HT1A cAMP % Inhibition (agonist activity)
T3 construct: expressed in transfected cells; host or cells: CHO/5-HT1A cells
T3 sequence (P08908 1-422): T2 sequence (P08908 1-422)
Method: 5-HT1A Functional Assay (cAMP)
CHO/5-HT1A cells were random seeded at a density of about 200,000/well in 24 well plates the day prior to the experiment. On the day of the experiment, cells were pretreated for 15 minutes at 37° C. with 500 μM isobutylmethylxantine (IBMX) dissolved in culture medium without serum. Wells were then divided in different groups in duplicate as follows: control, 10 μM FSK, 10 μM FSK+1 μM 5-HT as positive standard and 10 μM FSK+10 μM of the different compound under evaluation. Sample solutions were added and incubated for additional 15 minutes at 37° C. After incubation, medium was aspirated and the reaction stopped by adding 200 μl of lysis buffer. Plates were shaken for 5 minutes, then the lysate was removed and samples were stored at 4° C. until the day of the assay. For the cAMP evaluation, samples were properly diluted and the cAMP content was measured by an enzyme immunoassay system.
Results are expressed as % inhibition of the cAMP accumulation induced by 10 μM FSK.

inhibition at 0.1 µM [1]: 51%
inhibition at 0.1 µM ([2]; compound 10^−7 M, singlicate, [3H]-8-OH-DPAT 0.6-0.7 nM): 90%
IC50 ([2]; [3H]-8-OH-DPAT, one binding site model, read-out: 5-HT1A Receptor Binding IC50): 3.3 nM
inhibition at 10 µM [3]: 49%
SMILES: O=c1n(C/C=C/CN2CCN(c3ncccn3)CC2)c2ccccc2n1CC1CCCCC1 [Compound 125]

Reference: US6586435B2, “Benzimidazolone derivatives displaying affinity at the serotonin and dopamine receptors” (Boehringer Ingelheim Pharma KG, priority 2000, dated 2003)
